In US12569459B2, “Compositions and methods for treating pulmonary edema or lung inflammation” (priority 2020, dated 2026):

How the values were obtained:
[1] = system: Nrf2; assay: Western blot of Nrf2 protein in RLE-6TN cells under hyperoxia; type: cell-based, rat; conditions: 24 hours hyperoxia, T3 10^−6 M
From the text: FIG. 9. […] The cells were then collected for Western Blotting analysis. (A) Cellular total protein of Nrf2. (B) Nuclear Nrf2.
FIG. 12. T3-induced increase in Nrf2 and HO-1 protein via PI3K in hyperoxia. (A) Western Blot and densitometry data for total Nrf2. (B) Western Blot and densitometry data for cytoplasmic Nrf2. (C) Western Blot and densitometry data for nuclear Nrf2.
At the end of the hyperoxia exposure period, the viable cells were counted by trypan blue dye exclusion.
Nuclei were extracted with NE-PER nuclear and cytoplasmic extraction reagents kit (Thermo Fisher Scientific, Inc., Waltham, MA) following the manufacturer's instruction.
The cells were lysed in lysis buffer containing 20 mM Tris HCl (pH 7.5), 150 mM NaCl, 1 mM EDTA, 1 mM EGTA, 1% (vol/vol) Triton X-100 with protease inhibitors (1 mM PMSF, 2 μg/ml pepstatin, and 10 μg/ml each of aprotinin and leupeptin), and phosphatase inhibitors (2.5 mM sodium pyrophosphate, 1 mM β-glycerophosphate, and 1 mM Na3VO4). The lysate was drawn 10 times through a 25-gauge needle on ice for further lysis and then was centrifuged at 13,000 rpm for 15 minutes at 4° C. The supernatant was collected, and the protein concentrations were determined by use of the BCA protein assay kit (Sigma-Aldrich, St. Louis, MO). Immediately after this step, equal amounts of protein were subjected to Western blotting analysis.

[2] = system: Sprague Dawley rats exposed to normobaric hyperoxia; assay: Hyperoxia-induced lung injury (HALI) model with intraperitoneal T3
[3] = system: intubated patients with ARDS; assay: Phase I/II trial of instilled T3: safety and clinical course; type: in vivo, human
From the text: (§1) Ten milliliters (mls) of reformulated, pH-adjusted commercial intravenous T3 solution (Par Pharmaceutical, Navi Mumbai, India; and XGen Pharmaceuticals DJB, Inc., Horseheads, NY) was instilled directly into the airspaces via a suction catheter in the endotracheal tube of intubated patients with ARDS. […] The study was approved by the Essentia IRB (Duluth, MN) and listed on ClinicalTrials.gov (NCT04115514).
(§2) Subsequent doses were given on days 4, 6, and 7. […] Despite Klebsiella aerogenes positive sputum culture, they were extubated on ventilator day 11. After discharge from the ICU, they had some confusion and delirium.

[4] = GLP toxicity phase: intratracheal instillation once daily for five days; type: in vivo, Sprague-Dawley rats; conditions: for Body weight: female rats, at terminal euthanasia vs pre-dose
Experimental: Safety studies are described in Example 3, below. In a safety study conducted in compliance with Good Laboratory Practices (GLPs), 0.3 mL (300 μl) was administered to rats weighing 250-350 grams via intratracheal instillation daily for five consecutive days. […] The calculated dose based on lung weight was about 1.57 μg/g wet lung weight.
This study was conducted using both male and female Sprague-Dawley rats (Envigo, Huntingdon, United Kingdom). Evaluation of the safety of the tracheal route of instillation for liothyronine sodium injection in human clinical trials can be accomplished in this species at appropriate dose levels. Furthermore, responses to thyroid hormone in rats are similar to responses in humans, and the choice of the rat model is based in large part on pharmacologic data from studies of thyroid hormone and associated receptors and physiological responses in rat lung. The University of Minnesota is accredited by the Association for the Assessment and Accreditation of Laboratory Animal Care, International (AAALAC) and registered with the United States Department of Agriculture to conduct research in laboratory animals. Animal studies conformed to NIH guidelines (Guide for the Care and Use of Laboratory Animals. NIH publication No. 86-23. Revised 1985). The protocol was reviewed and approved, as applicable, by the Institutional Animal Care and Use Committee (IACUC) at the University of Minnesota for compliance with regulations prior to study initiation or implementation of amended activities.
Sixty animals (plus two spare animals/sex/group) were anesthetized and dosed via intratracheal instillation of test or control materials for five consecutive days. On the day after the last dose a terminal blood collection was performed for clinical pathology, after which animals were euthanized and a gross examination of all organs was performed by a board-certified veterinary pathologist. Select tissues were collected for histopathology. […] Terminal blood collection was performed at two designated time points per animal up to 24 hours after administration for toxicokinetic evaluation. TK animals were euthanized without further evaluation after the final blood collection. All animals were acclimated for a minimum of seven days prior to the dosing procedure. Animals underwent baseline observations and examinations prior to the initiation of the study, and clinical observations and body weight monitoring were performed throughout the in-life portion of the study. All animals received the same dose volume (0.3 mL) of either test or control materials. This maximum feasible dose (MFD) is constrained by the maximum volume that can be safely and reproducibly (over five days) instilled into lungs of rats weighing 250 g to 350 g, which was determined in preliminary toxicology studies to be 0.3 mL. Actual doses delivered are reported as both μg/kg body weight and μg/gm wet lung weight. The toxicity phase animals were 72-135 days of age at the time of initial dosing. Males weighed between 256.52 g and 307.50 g with a mean±standard deviation of 286.74±11.77 g, and females weighed between 250.46 g and 299.01 g with a mean±standard deviation of 260.64±10.34 g. The TK phase animals were 68-144 days of age at the time of initial dosing. Males weighed between 261.23 g and 316.19 g; females weighed between 250.06 g and 280.32 g.
Test and control materials were drawn into dosing syringes using aseptic technique. Using a 18G needle, 0.5 mL of air was drawn into a 1 cc syringe followed by 0.3 mL (300 μL) of the solutions. Animals were anesthetized with a combination of ketamine, 40 mg/kg to 200 mg/kg, and xylazine, 1 mg/kg to 7 mg/kg intraperitoneally (IP), to effect. The dose was adjusted daily, as needed, based on individual animal response and recovery. Depth of anesthesia was evaluated by toe pinch, and eye lubricant was applied to the eyes. […]

[5] = Phase I/II trial of instilled T3: serum thyroid hormone levels; type: in vivo, human
From the text: as §1, §2

[6] = females, 1 day after fifth dose

In the case of `N[C@@H](Cc1cc(I)c(Oc2ccc(O)c(I)c2)c(I)c1)C(=O)O` [T3, triiodothyronine], the “Total cellular and nuclear Nrf2 protein” value [1] was “significantly increased both total cellular and nuclear Nrf-2 protein expression”, the BALF protein concentration ([2]; 48-hour and 60-hour time points of hyperoxia, vs hyperoxia alone) was “attenuated significantly the hyperoxic increases in the BALF protein concentration” and the “Serum total T3” value ([2]; 95% oxygen 60 hours, intraperitoneal T3 supplementation (50 μg/kg bodyweight/24 hours)) was “augmented serum total T3”. The “MPO-positive cells in the lungs (immunostaining)” value ([2]; 95% oxygen 60 hours, vs hyperoxic lungs without T3) was “fewer MPO-positive cells”, the BALF cell numbers ([2]; 48 hours and 60 hours of 95% oxygen, vs hyperoxia alone) was “significantly reduced the BALF cell numbers” and the “Lung morphology (histopathology)” value ([2]; 60 hours hyperoxia, systemic T3 supplementation) was “persistence of virtually normal lung morphology”. The “Lung MPO activity” value ([2]; 60 hours of hyperoxia) was “significantly reduced the hyperoxia-induced MPO activity”, the Follow-up status ([3]; Patient 1, 60 days) was “normal complete pulmonary function tests (PFTs) and chest radiograph at 60 days” and the “Ventilator day of extubation” value ([3]; Patient 1, four 50 μg doses from day 3) was 11. For the same compound, the Tolerability of instillation ([3]; Patient 2) was “tolerated each installation without apparent adverse side effects”, the Follow-up status ([3]; Patient 2, 60-day clinic follow up) was “asymptomatic with normal lung exam, chest radiograph and PFTs” and the “Ventilator day of extubation” value ([3]; Patient 2, escalating doses from ventilator day 3) was 20. The Oxygenation ([3]; Patient 2, previously deteriorating) was “stabilized over the four treatment days”, the “Adverse pulmonary or systemic events ascribed to T3 instillation” value ([3]; Patients 1 and 2) was “Neither patient had significant adverse pulmonary or systemic events” and the “Vasopressor dose required to maintain mean arterial pressure” value ([3]; Patients 1 and 2) was “decreased in temporal association with the T3 instillation”. The “Gross pathology at necropsy” value ([4]; all toxicity phase animals) was “No evidence of toxicity was observed grossly”, the Clinical observations ([4]; during the study) was “No adverse T3 related clinical observations were observed” and the “Treatment-related macroscopic or microscopic findings” value ([4]; end organs examined) was “no macroscopic or microscopic findings in any of the end organs examined”. For the same compound, the Body weight ([4]; toxicity phase) was “weighed slightly less than their pre-dose weight”, the Body weight ([4]; toxicity phase, listed as liothyronine sodium) was “did not regain body weight at the same rate as males or as in control groups” and the “Hematology vs control groups” value [4, 6] was “mildly increased reticulocyte count and degree of polychromasia”. For the same compound, the “Serum chemistry vs control groups” value [4, 6] was “slight statistical difference in the mean albumin concentration”, the “Organ weight of the lungs” value ([4]; five days intratracheal instillation) was “no differences in the organ weight of the lungs” and the “Hematology parameters vs control groups” value ([4]; males, 1 day after fifth dose) was “no statistical or clinically significant changes”. For the same compound, the “Serum chemistry vs control groups” value ([4]; males, 1 day after fifth dose) was “slight difference in the mean globulin level”, the “Deaths after dose administration” value ([4]; toxicity phase, T3 group, ascribed to colon impaction and instillation procedure) was “two T3 test animals that died after dose administration” and the “Complications or changes (histopathologic, physiologic, laboratory value assessments)” value ([4]; ~2.7 μg in 0.3 mL intratracheally daily for five consecutive days) was “No significant complications or changes were observed”. For the same compound, the “Serum free T3 levels” value ([5]; Patient 1, four 50-μg daily instilled doses, all days of treatment) was 1.9 to 3.4 pg/mL and the “Serum free T3 levels” value ([5]; Patient 2, escalating daily instilled doses 5, 10, 25, 50 μg) was under 1.5 to 2.2 pg/mL.
